The assay has as its target T1, LanC-like protein 2 (Homo sapiens, UniProt Q9NS86).
T1 sequence (Q9NS86 whole entry): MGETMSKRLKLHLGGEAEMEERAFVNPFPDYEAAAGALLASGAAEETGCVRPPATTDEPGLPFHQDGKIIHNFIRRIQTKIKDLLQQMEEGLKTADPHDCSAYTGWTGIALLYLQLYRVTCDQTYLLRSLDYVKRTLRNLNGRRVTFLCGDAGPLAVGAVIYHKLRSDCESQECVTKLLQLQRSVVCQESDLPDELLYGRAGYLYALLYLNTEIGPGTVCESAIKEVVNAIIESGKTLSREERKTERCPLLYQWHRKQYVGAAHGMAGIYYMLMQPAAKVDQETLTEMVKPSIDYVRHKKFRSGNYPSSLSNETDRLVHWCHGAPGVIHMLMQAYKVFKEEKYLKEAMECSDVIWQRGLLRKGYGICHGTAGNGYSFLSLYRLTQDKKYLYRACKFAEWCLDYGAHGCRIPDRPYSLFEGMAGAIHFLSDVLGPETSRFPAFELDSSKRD
In words: Receptor Binding Assay. The protocol: 1. […] The kinetic parameters of small molecules BT-11 and L-1 to 60 (analytes) binding to LANCL2 (ligand) were determined using BIACORE S200. Data were generated in triplicate in a dose-dependent manner (5-8 titration points) and analyzed to determine binding models (Langmuir, conformational shifts, etc.), real-time association and dissociation constants, and equilibrium dissociation constants. SPR technology allows the validation of specific LANCL2-phytochemical interactions as well as an increased insight into the gold standard of binding mechanisms and rates. Experiments were performed on carboxymethyl polydextrose (CM5) sensor chips by amine-coupled covalent attachment of LANCL2. Data were analyzed with BIACORE S200T200 evaluation software (version 1), so as to determine affinity binding constants (KD) using a 1:1 binding model.

Drawing on BindingDB's records for patent US20240101552 (Shanghai Pharmaceuticals Holding Co., 2024), this text covers Kd for 31 molecules.

pKd: −log10 of the molar value.

For `O=C(Nc1ccccc1NC(=O)c1cccc(-c2cn3ccccc3n2)c1)c1cccc(-c2cn3ccccc3n2)c1` [US20240101552, Compound L-1], the negative logarithm of the Kd (pKd) (usually the Kd on a negative log10 scale, so that one unit is a factor of ten) is 5.35. The value for `O=C(NC1C2CN(C(=O)c3cccc(-c4cn5ccccc5n4)c3)CC21)c1cccc(-c2nc3ccccc3[nH]2)n1` [US20240101552, Compound L-2] was 6.14; that for `O=C(c1cccc(-c2cn3ccccc3n2)c1)N1CCC2(CC1)CCN(C(=O)c1cccc(-c3nc4ccccc4[nH]3)n1)CC2` [US20240101552, Compound L-3] was 5.16; that for `O=C(c1cccc(-c2cn3ccccc3n2)c1)N1CC2CC1CN2C(=O)c1cccc(-c2nc3ccccc3[nH]2)n1` [US20240101552, Compound L-4] was 4.40. The value for `O=C(NC1CCN(C(=O)c2cccc(-c3nc4ccccc4[nH]3)n2)CC1)c1cccc(-c2cn3ccccc3n2)c1` [US20240101552, Compound L-5] was 4.77; that for `O=C(c1cccc(-c2nc3ccccc3[nH]2)n1)N1CC2CN(C(=O)c3cccc(-c4nc5ccccc5[nH]4)n3)CC2C1` [US20240101552, Compound L-10] was 4.74. The value for `O=C(c1cccc(-c2nc3ccccc3[nH]2)n1)N1CCC2(CC1)CCN(C(=O)c1ccnc(N3CCOCC3)n1)CC2` [US20240101552, Compound L-15] was 5.64; that for `O=C(c1cccc(-c2nc3ccccc3[nH]2)n1)N1CC2CN(C(=O)c3ccnc(N4CCOCC4)n3)CC2C1` [US20240101552, Compound L-16] was 4.07.

For the molecule `O=C(c1cccc(-c2nc3ccccc3[nH]2)n1)N1CC2CN(C(=O)c3ccnc(Nc4ccccc4)n3)CC2C1` [US20240101552, Compound L-24], the pKd is 4.24.

As to `O=C(NC1C2CN(C(=O)c3cccc(-c4nc5ccccc5[nH]4)n3)CC21)c1ccnc(Nc2ccccn2)n1` [US20240101552, Compound L-25], the negative logarithm of the Kd (pKd) is 5.70.

`O=C(c1cccc(-c2nc3ccccc3[nH]2)n1)N1CC2CN(C(=O)c3ccnc(Nc4ccccn4)n3)CC2C1` [US20240101552, Compound L-26] had a pKd of 4.18. In the case of `O=C(NC1CCN(C(=O)c2cccc(-c3nc4ccccc4[nH]3)n2)CC1)c1cccc([N+](=O)[O-])c1` [US20240101552, Compound L-38], the pKd is 5.04. The value for `O=C(C1CCCN1C(=O)c1cccc(-c2cn3ccccc3n2)c1)N1CC2CN(c3ccc([N+](=O)[O-])cc3)CC2C1` [US20240101552, Compound L-39] was 5.20.

For `O=C(c1cccc([N+](=O)[O-])c1)N1CCC2(CC1)CCN(C(=O)c1cccc(-c3nc4ccccc4[nH]3)n1)CC2` [US20240101552, Compound L-40], the pKd was 5.49.

As for `O=C(c1cccc([N+](=O)[O-])c1)N1CC2CN(C(=O)c3cccc(-c4nc5ccccc5[nH]4)n3)CC2C1` [US20240101552, Compound L-41], the pKd was 4.56. The value for `O=C(c1cccc(-c2cn3ccccc3n2)c1)N1CC2CN(C(=O)c3ccnc(Nc4ccccc4)n3)CC2C1` [US20240101552, Compound L-43] was 4.31. The value for `O=C(c1cccc(Nc2ccccc2)n1)N1CCC2(CC1)CCN(C(=O)c1cccc(-c3nc4ccccc4[nH]3)n1)CC2` [US20240101552, Compound L-45] was 5.08. `O=C(NC1CCN(C(=O)c2cccc(-c3nc4ccccc4[nH]3)n2)CC1)c1cccc(Nc2ccccc2)n1` [US20240101552, Compound L-47]: the pKd was 4.88. For the molecule `O=C(c1ccnc(Nc2ccccn2)c1)N1CC2CN(C(=O)c3cccc(-c4nc5ccccc5[nH]4)n3)CC2C1` [US20240101552, Compound L-53], the pKd is 4.44. In the case of `O=C(c1cccc(-c2cn3ccccc3n2)c1)N1CC2CN(C(=O)c3cccc(-c4nc5ccccc5[nH]4)n3)CC2C1` [US20240101552, Compound L-55] it was 4.77; in that of `O=C(c1cccc(Nc2ccccc2)n1)N1CCC2(CCN(C(=O)c3cccc(-c4nc5ccccc5[nH]4)n3)CC2)C1` [US20240101552, Compound L-61], 4.63. The value for `O=C(N[C@H]1[C@@H]2CN(C(=O)c3cccc(-c4cn5ccccc5n4)c3)C[C@@H]21)c1cccc(-c2cn3ccccc3n2)c1` [US20240101552, Compound L-89] was 5.60. The value for `O=C(N[C@H]1[C@@H]2CN(C(=O)c3cccc(Nc4ccccc4)n3)C[C@@H]21)c1cccc(-c2cn3ccccc3n2)c1` [US20240101552, Compound L-90] was 5.02.

As for `O=C(c1ccnc(Nc2ccccc2)n1)N1CCC2(CC1)CCN(C(=O)c1ccnc(Nc3ccccn3)n1)CC2` [US20240101552, Compound L-98], the pKd is 4.91. Molecule `O=C(NC1CCN(C(=O)c2ccnc(Nc3ccccc3)n2)CC1)c1ccnc(Nc2ccccn2)n1` [US20240101552, Compound L-99] had a pKd of 5.27. In the case of `O=C(c1cccc(Nc2ccccc2)n1)N1CC2CN(C(=O)c3ccnc(Nc4ccccc4)n3)CC2C1` [US20240101552, Compound L-102] it was 4.53; in that of `O=C(N[C@H]1[C@@H]2CN(C(=O)c3cccc(Nc4ccccc4)n3)C[C@@H]21)c1ccnc(Nc2ccccc2)n1` [US20240101552, Compound L-103], 4.62.

`O=C(N[C@H]1[C@@H]2CN(C(=O)c3cccnc3Oc3ccccc3)C[C@@H]21)c1cccc(-c2cn3ccccc3n2)c1` [US20240101552, Compound L-105] showed a pKd of 4.76. In the case of `O=C(N[C@H]1[C@@H]2CN(C(=O)c3n[nH]c4ccccc34)C[C@@H]21)c1cccc(-c2cn3ccccc3n2)c1` [US20240101552, Compound L-106] it was 5.36; in that of `O=C(NC1CCN(C(=O)c2cccc(Nc3ccccc3)n2)CC1)c1cccc(Nc2ccccc2)n1` [US20240101552, Compound L-114], 4.97; in that of `O=C(Nc1cccc(-c2cn3ccccc3n2)c1)N1CCN(C(=O)c2cccc(-c3nc4ccccc4[nH]3)n2)CC1` [US20240101552, Compound L-118], 5.06.
